How the values were obtained:
[1] = Eye closure after ocular dosing; format: in vivo, New Zealand White rabbits; conditions: versus Example 2 of WO 2004/085430
[2] = Ocular adverse effects (conjuctival hyperemia, partial eye closure, etc.); format: in vivo, Cynomolgus Monkeys; conditions: versus Example 2 of WO 2004/085430
[3] = Vehicle panel-controlled 5 day ocular tolerability study (topical, bilateral, b.i.d); format: in vivo, Dutch-Belted rabbits; conditions: 5 days, 2.2 μM (25 μL) ophthalmic solution
[4] = Ocular tolerability in animal species compared to compounds of WO 2004/085430; format: in vivo; conditions: compared to compounds disclosed in WO 2004/085430 (i.e., Example 2)
[5] = tested on: EP4 mRNA in RP-1 periosteal cells; test: EP4 mRNA levels (Northern blot) in RP-1 periosteal cells; format: cell-based, rat; conditions: 10^−6 M
Method: (§1) RP-1 periosteal cells are spontaneously immortalized from primary cultures of periosteal cells from tibae of 4-week old Sprague-Dawley rats and are cultured in DMEM (BRL, Gaithersburg, Md.) with 10% fetal bovine serum (JRH Biosciences, Lenexa, Kans.).
(§2) Total RNA is extracted from the tibial metaphysis or diaphysis and calvaria using a guanidinium isothiocyanate-phenol-chloroform method after pulverizing frozen bone samples by a tissue homogenizer. See P. Chomczynski et al., Single-step method of RNA isolation by acid guanidium thiocyanate-phenol-chloroform extraction., Analyt Biochem, 162, 156-159 (1987), which is incorporated by reference herein in its entirety. RNA samples ([…]) are separated on 0.9% agarose/formaldehyde gels and transferred onto nylon membranes (Boehringer Mannheim, Germany). Membranes are prehybridized in Hybrisol I (Oncor, Gaithersburg, Md.) and 0.5 mg/ml sonicated salmon sperm DNA (Boehringer) at 42° C. for 3 hours and are hybridized at 42° C. with rat EP2 and mouse EP4 cDNA probes labeled with [^32P]-dCTP (Amersham, Buckinghamshire, UK) by random priming using the rediprime kit (Amersham). After hybridization, membranes are washed 4 times in 2×SSC+0.1% SDS at room temperature for a total of 1 hour and once with 0.2×SSC+0.1% SDS at 55° C. for 1 hour and then exposed to Kodak XAR 2 film at −70° C. using intensifying screens. […]

EP4 mRNA in bone tissue = test: EP4 mRNA levels in vivo in bone tissue after systemic PGE2; conditions: five-week-old male rats, injected 3-6 mg/Kg
From the text: For mRNA localization experiments, 5-week old Sprague-Dawley rats (Charles River) are euthanized by CO2, their tibiae and calvariae are excised, cleaned of soft tissues and frozen immediately in liquid nitrogen. […] Animals are euthanized at several time points post-injection and their tibiae and calvariae, as well as samples from lung and kidney tissues are frozen in liquid nitrogen.
as §2, with “(Amersham).” for “(Amersham). After hybridization, membranes are washed 4 times in 2×SSC+0.1% SDS at room temperature for a total of 1 hour and once with 0.2×SSC+0.1% SDS at 55° C. for 1 hour and then exposed to Kodak XAR 2 film at −70° C. using intensifying screens.”

EP4 mRNA in RCT-3 cells = test: EP4 mRNA levels (Northern blot) in RCT-3 cells; format: cell-based, rat
Method: (§3) RCT-1 and RCT-3 are clonal cell lines immortalized by SV40 large T antigen from cells released from fetal rat calvair by a cmbination collagenase/hyaluronidase digestion. RCT-1 cells, derived from cells released during the first 10 minutes of digestion (fraction I), are cultured in RPMI 1640 medium (BRL) with 10% fetal bovine serum and 0.4 mg/ml G418 (BRL). These cells differentiate and express osteoblastic features upon retinoic acid treatment. RCT-3 cells, immortalized from osteoblast-enriched fraction III cells, are cultured in F-12 medium (BRL) with 5% Fetal bovine serum and 0.4 mg/ml G418. TRAB-11 cells are also immortalized by SV40 large T antigen from adult rat tibia and are cultured in RPMI 1640 medium with 10% FBS and 0.4 mg/ml G418. ROS 17/2.8 rat osteosarcoma cells are cultured in F-12 containing 5% FBS. Osteoblast-enriched (fraction III) primary fetal rat calvaria cells are obtained by collagenase/hyaluronidase digestion of calvariae of 19 day-old rat fetuses. See Rodan et al., Growth stimulation of rat calvaria osieoblastic cells by acidic FGF, Endocrinology, 121, 1919-1923 (1987), which is incorporated by reference herein in its entirety. Cells are released during 30-50 minutes digestion (fraction III) and are cultured in F-12 medium containing 5% FBS. […]

ROS 17/2.8 cells = test: Intracellular cAMP in osteoblastic cells; format: cell-based; conditions: ROS 17/2.8 rat osteosarcoma cells
Method: as §3

EP2 mRNA in RP-1 cells = test: EP2 mRNA expression (Northern blot) in RP-1 cells; format: cell-based, rat
Method: as §1, §2

[6] = tested on: EP4 mRNA in bone marrow cells; test: In situ hybridization, localization of EP4 expression in bone; format: in vivo; conditions: single anabolic dose, versus vehicle-injected rats
Method: (§4) For mRNA localization experiments, 5-week old Sprague-Dawley rats (Charles River) are euthanized by CO2, their tibiae and calvariae are excised, cleaned of soft tissues and frozen immediately in liquid nitrogen. For EP4 regulation experiments, 6-week old rats are given a single injection of either vehicle (7% ethanol in sterile water) or an anabolic dose of PGE2 (Cayman Chemical, Ann Arbor, Mich.), 3-6 mg/kg in the same vehicle) intraperitoneally. Animals are euthanized at several time points post-injection and their tibiae and calvariae, as well as samples from lung and kidney tissues are frozen in liquid nitrogen.
Frozen tibiae are sectioned coronally at […] thickness and sections are mounted on charged slides (Probe On Plus, Fisher Scientific, Springfield, N.J.) and are kept at −70° C. until hybridization. cRNA probes are labeled with ^35S-UTPgS (ICN, Costa Mesa, Calif.) using a Riboprobe II kit (Promega Madison, Wis.). Hybridization is performed overnight at 50° C. See M. Weinreb et al., Different pattern of alkaline phosphalase, osteopontin and osteocalcin expression in developing rat bone visualized by in-situ hybridization, J. Bone Miner Res., 5, 83′-842 (1990) and D. Shinar et al., Expression of alphav and beta3 integrin subunits in rat osteoclasts in situ, J. Bone Miner. Res., 8, 403-414 (1993), which are both incorporated by reference herein in their entirety. […]

EP2 mRNA in bone tissue = test: EP2 mRNA in vivo in bone tissue after systemic PGE2; conditions: rats, systemic administration
Method: as §4
Total RNA is extracted from the tibial metaphysis or diaphysis and calvaria using a guanidinium isothiocyanate-phenol-chloroform method after pulverizing frozen bone samples by a tissue homogenizer. See P. Chomczynski et al., Single-step method of RNA isolation by acid guanidium thiocyanate-phenol-chloroform extraction., Analyt Biochem, 162, 156-159 (1987), which is incorporated by reference herein in its entirety. RNA samples ([…]) are separated on 0.9% agarose/formaldehyde gels and transferred onto nylon membranes (Boehringer Mannheim, Germany). […]

RCT-3 cells = test: Intracellular cAMP in osteoblastic cells; format: cell-based, rat
Method: as §3

TRAB-11 cells = test: Intracellular cAMP in osteoblastic cells; format: cell-based, rat
Method: as §3

Structure (SMILES) | improvement in eye closure [1] | improvement in ocular adverse effects (conjuctival hyperemia, partial eye closure, etc.) [2] | drug treatment related findings [3] | ocular tolerability [4] | effect on EP4 mRNA levels [5] | time of peak EP4 mRNA levels after treatment [5] | effect on EP4 mRNA levels in the tibial diaphysis (EP4 mRNA in bone tissue) | time of peak EP4 mRNA levels in the tibial diaphysis after injection (EP4 mRNA in bone tissue) | effect on EP4 mRNA levels (EP4 mRNA in RCT-3 cells) | effect on intracellular cAMP (ROS 17/2.8 cells) | EP2 mRNA expression before or after treatment (EP2 mRNA in RP-1 cells) | expression of EP4 in bone marrow cells [6] | induction of EP2 mRNA in bone tissue (EP2 mRNA in bone tissue) | effect on intracellular cAMP (RCT-3 cells) | effect on intracellular cAMP (TRAB-11 cells)
CC(C)OC(=O)c1ccc(CCCN2C(=O)OCC[C@@H]2/C=C/[C@@H](O)C(F)(F)c2cccc(Br)c2)s1 [Example 1, Isopropyl 5-(3-{(4R)-4-[(1E,3R)-4-(3-bromophenyl)-4,4-difluoro-3-hydroxybut-1-en-1-yl]-2-oxo-1,3-oxazinan-3-yl}propyl)thiophene-2-carboxylate] | 5 fold | 3-5 fold | no drug treatment related findings | improved ocular tolerability |  |  |  |  |  |  |  |  |  |  | 
CCCCC[C@H](O)/C=C/[C@H]1[C@H](O)CC(=O)[C@@H]1C/C=C\CCCC(=O)O [PGE2] |  |  |  |  | rapidly increases EP4 mRNA levels | 2 h | rapidly increased EP4 mRNA levels | 2 h | no effect on EP4 mRNA levels | no effect | not expressed | increased the expression of EP4 | does not induce EP2 mRNA | markedly induced | markedly induced
